{"source": "ChEMBL document CHEMBL5500404", "about": "“Discovery and Development of NLRP3 Inhibitors Targeting the LRR Domain to Disrupt NLRP3-NEK7 Interaction for the Treatment of Rheumatoid Arthritis” (J Med Chem, 2024)", "key": {"[1]": {"target": "T1, NACHT, LRR and PYD domains-containing protein 1 (Homo sapiens) (UniProt Q9C000)", "T1 sequence (whole entry)": "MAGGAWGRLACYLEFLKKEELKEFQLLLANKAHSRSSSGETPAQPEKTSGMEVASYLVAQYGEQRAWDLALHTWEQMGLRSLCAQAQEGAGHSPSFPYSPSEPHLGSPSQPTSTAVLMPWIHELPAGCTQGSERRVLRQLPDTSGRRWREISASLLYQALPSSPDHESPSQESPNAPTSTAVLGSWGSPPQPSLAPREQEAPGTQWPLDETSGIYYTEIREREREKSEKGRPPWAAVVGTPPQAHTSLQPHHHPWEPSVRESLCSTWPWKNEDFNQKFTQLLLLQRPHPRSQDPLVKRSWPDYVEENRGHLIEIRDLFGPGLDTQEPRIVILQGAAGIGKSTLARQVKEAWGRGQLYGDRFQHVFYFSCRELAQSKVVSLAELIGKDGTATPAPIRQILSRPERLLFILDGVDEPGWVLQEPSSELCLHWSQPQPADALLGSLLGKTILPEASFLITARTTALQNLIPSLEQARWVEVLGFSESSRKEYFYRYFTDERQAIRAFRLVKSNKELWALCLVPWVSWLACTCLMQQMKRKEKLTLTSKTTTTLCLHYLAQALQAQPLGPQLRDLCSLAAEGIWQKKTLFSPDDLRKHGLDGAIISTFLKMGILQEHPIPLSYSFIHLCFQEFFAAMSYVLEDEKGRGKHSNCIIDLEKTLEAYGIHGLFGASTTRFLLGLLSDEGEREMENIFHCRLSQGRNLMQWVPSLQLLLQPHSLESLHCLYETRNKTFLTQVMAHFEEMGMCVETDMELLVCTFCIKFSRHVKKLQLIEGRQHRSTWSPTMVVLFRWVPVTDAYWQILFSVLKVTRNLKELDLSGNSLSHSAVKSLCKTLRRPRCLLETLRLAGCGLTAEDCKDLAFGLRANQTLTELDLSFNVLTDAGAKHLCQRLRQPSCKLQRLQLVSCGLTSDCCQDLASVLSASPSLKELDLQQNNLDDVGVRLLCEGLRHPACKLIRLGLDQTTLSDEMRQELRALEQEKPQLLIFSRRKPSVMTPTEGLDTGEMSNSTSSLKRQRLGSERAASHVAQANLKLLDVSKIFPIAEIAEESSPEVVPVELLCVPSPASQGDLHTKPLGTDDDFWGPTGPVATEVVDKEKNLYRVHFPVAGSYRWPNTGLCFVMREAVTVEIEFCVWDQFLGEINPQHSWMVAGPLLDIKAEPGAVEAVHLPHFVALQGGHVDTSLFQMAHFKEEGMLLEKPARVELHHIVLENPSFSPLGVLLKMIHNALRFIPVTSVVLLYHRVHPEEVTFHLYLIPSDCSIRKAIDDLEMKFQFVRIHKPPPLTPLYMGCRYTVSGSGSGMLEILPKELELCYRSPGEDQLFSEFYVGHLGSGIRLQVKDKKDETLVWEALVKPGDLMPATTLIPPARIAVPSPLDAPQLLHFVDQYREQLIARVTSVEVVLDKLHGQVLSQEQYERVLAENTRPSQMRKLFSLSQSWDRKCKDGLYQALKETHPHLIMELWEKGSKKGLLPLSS", "test": "Inhibition of NLRP1 inflammasome in Val-boroPro-induced human THP-M cells assessed as inhibition of IL-1beta level at 20 to 60 uM pretreated for 24 hrs followed by stimulated with LPS by ELISA", "assay_type": "cell-based", "details": "dose 20-60 µM"}, "[2]": {"test": "AUC (0 to t) in Sprague-Dawley rat at 20 mg/kg, IG measured upto 1440 mins by LC-MS/MS analysis", "assay_type": "ADME, organism-based", "details": "in vivo, po"}, "[3]": {"test": "MRT (0 to t) in Sprague-Dawley rat at 20 mg/kg, IG measured upto 1440 mins by LC-MS/MS analysis", "assay_type": "ADME, organism-based", "details": "in vivo, po"}, "Rattus norvegicus [4]": {"system": "Rattus norvegicus", "test": "Anti-inflammatory activity against complete Freund's adjuvant (CFA)-induced arthritis rat model assessed as recovery in degree of swelling in left hind paw at 20 to 80 mg/kg, ip treated after 17 days of CFA challenge measured after 18 days (day 17 to 34) relative to control", "assay_type": "functional, organism-based", "details": "dose 20-80 mg/kg, time 18.0 day"}, "[5]": {"test": "Cmax in Sprague-Dawley rat at 20 mg/kg, IG measured upto 1440 mins by LC-MS/MS analysis", "assay_type": "ADME, organism-based", "details": "in vivo, po"}, "[6]": {"test": "MRT (0 to infinity) in Sprague-Dawley rat at 20 mg/kg, IG measured upto 1440 mins by LC-MS/MS analysis", "assay_type": "ADME, organism-based", "details": "in vivo, po"}, "Rattus norvegicus [7]": {"system": "Rattus norvegicus", "test": "(§1) Anti-inflammatory activity against complete Freund's adjuvant (CFA)-induced arthritis rat model assessed as decrease in spleen index at 20 to 80 mg/kg, ip treated after 17 days of CFA challenge measured after 18 days (day 17 to 34) relative to model group", "assay_type": "functional, organism-based", "details": "dose 20-80 mg/kg, time 18.0 day"}, "[8]": {"test": "MRT (0 to t) in Sprague-Dawley rat at 20 mg/kg, ip measured upto 720 mins by LC-MS/MS analysis", "assay_type": "ADME, organism-based", "details": "in vivo"}, "Rattus norvegicus [9]": {"system": "Rattus norvegicus", "test": "Anti-inflammatory activity against complete Freund's adjuvant (CFA)-induced arthritis rat model assessed as decrease in thymus index at 20 to 80 mg/kg, ip treated after 17 days of CFA challenge measured after 18 days (day 17 to 34) relative to model group", "assay_type": "functional, organism-based", "details": "dose 20-80 mg/kg, time 18.0 day"}, "Rattus norvegicus [10]": {"system": "Rattus norvegicus", "test": "as §1, with “reduction” for “decrease”, “NLRP3 in rat synovium from the left rear ankle” for “spleen index”, “34) by immunofluorescence based assay” for “34)”", "assay_type": "functional, organism-based", "details": "dose 20-80 mg/kg, time 18.0 day"}, "[11]": {"test": "Apparent volume of distribution during terminal phase in Sprague-Dawley rat at 20 mg/kg, ip measured upto 720 mins by LC-MS/MS analysis", "assay_type": "ADME, organism-based", "details": "in vivo, read-out: Vz/F"}, "[12]": {"test": "AUC (0 to t) in Sprague-Dawley rat at 20 mg/kg, ip measured upto 720 mins by LC-MS/MS analysis", "assay_type": "ADME, organism-based", "details": "in vivo"}, "[13]": {"test": "Apparent volume of distribution during terminal phase in Sprague-Dawley rat at 20 mg/kg, IG measured upto 1440 mins by LC-MS/MS analysis", "assay_type": "ADME, organism-based", "details": "in vivo, po, read-out: Vz/F"}}, "note": "The source made the active and inactive calls. The calls are words filed in the database; no cut-off is given here."}
{"smiles": "COCCCNC(=O)c1ccc(Cn2c(SCC3CCCCC3)nc3ccncc32)cc1", "values": [{"measurement": "inhibition", "setting": "[1]", "value": "inactive"}, {"measurement": "AUC(0-t) at 24 h", "setting": "[2]", "value": 837, "unit": "ng·h/mL"}, {"measurement": "MRT last at 24 h", "setting": "[3]", "value": 2.31, "unit": "h"}, {"measurement": "Activity", "setting": "Rattus norvegicus [4]", "value": "Active"}, {"measurement": "Cmax", "setting": "[5]", "value": 448, "unit": "ng/mL"}, {"measurement": "MRT inf", "setting": "[6]", "value": 2.7, "unit": "h"}, {"measurement": "Activity", "setting": "Rattus norvegicus [7]", "value": "Active"}, {"measurement": "MRT last at 12 h", "setting": "[8]", "value": 0.698, "unit": "h"}, {"measurement": "Activity", "setting": "Rattus norvegicus [9]", "value": "Active"}, {"measurement": "Activity", "setting": "Rattus norvegicus [10]", "value": "Active"}, {"measurement": "Vd/F", "setting": "[11]", "value": 2.8, "unit": "L/kg"}, {"measurement": "AUC(0-t) at 12 h", "setting": "[12]", "value": 1860, "unit": "ng·h/mL"}, {"measurement": "Vd/F", "setting": "[13]", "value": 73.4, "unit": "L/kg"}]}
